According to ChEMBL document CHEMBL1139698, “Potent, selective pyrimidinetrione-based inhibitors of MMP-13” (Bioorg Med Chem Lett, 2006):

Key:
[1] = organism: Homo sapiens; assay: Selectivity for MMP13 over MMP8
[2] = organism: Homo sapiens; assay: Selectivity for MMP13 over MMP12
[3] = organism: Homo sapiens; assay: Selectivity for MMP13 over MMP2
[4] = target: T1, Collagenase 3 (Homo sapiens, UniProt P45452)
[5] = tested on: Cartilage tissue; assay: Inhibition of bovine nasal cartilage degradation; assay type: functional, tissue-based; settings: Bos taurus
[6] = target: T1, Collagenase 3; assay: Inhibition of MMP13 in hamster synovial fluid; settings: Cricetulus griseus
[7] = Plasma clearance in rat; assay type: ADME, organism-based
[8] = organism: Homo sapiens; assay: Selectivity for MMP13 over MMP3
[9] = target: Matrix metalloproteinase (1 and 13) (Homo sapiens) (UniProt P45452+P03956); assay: Selectivity for MMP13 over MMP1; assay type: protein assay
[10] = organism: Homo sapiens; assay: Selectivity for MMP13 over MMP14
[11] = Plasma protein binding in rat; assay type: ADME, cell-free; settings: read-out: PPB
[12] = Volume of distribution in rat; assay type: ADME, organism-based; settings: in vivo, read-out: Vdss
[13] = target: Collagenase 3 (Rattus norvegicus, UniProt P23097); assay: Inhibition of MMP13 in rat plasma; assay type: cell-free
[14] = organism: Homo sapiens; assay: Selectivity for MMP13 over MMP9
[15] = Half life in rat; assay type: ADME, organism-based; settings: in vivo

Chain of Matrix metalloproteinase (1 and 13) (Homo sapiens) (P03956 whole entry, looked up, other chains not shown): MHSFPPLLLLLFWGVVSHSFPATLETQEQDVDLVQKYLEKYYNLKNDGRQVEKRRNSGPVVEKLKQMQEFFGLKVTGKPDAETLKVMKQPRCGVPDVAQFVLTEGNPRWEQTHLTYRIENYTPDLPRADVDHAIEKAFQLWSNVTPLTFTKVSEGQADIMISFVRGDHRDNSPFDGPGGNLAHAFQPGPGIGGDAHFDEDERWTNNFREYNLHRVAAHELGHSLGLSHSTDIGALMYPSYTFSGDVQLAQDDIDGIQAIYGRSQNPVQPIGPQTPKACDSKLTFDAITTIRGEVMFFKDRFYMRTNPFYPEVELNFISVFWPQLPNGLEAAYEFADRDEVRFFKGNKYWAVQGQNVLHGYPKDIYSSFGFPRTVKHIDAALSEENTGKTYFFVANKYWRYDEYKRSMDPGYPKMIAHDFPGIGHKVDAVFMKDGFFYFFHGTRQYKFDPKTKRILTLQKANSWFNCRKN

SMILES	Selectivity ratio [1]	Selectivity ratio [2]	Selectivity ratio [3]	IC50 [4]	other results
COCCC1(Oc2ccc(Oc3ccc(-c4nc(-c5cccc(F)c5)co4)cc3)cc2)C(=O)NC(=O)NC1=O	152	1310	239	0.46 nM	–
COCCC1(Oc2ccc(Oc3ccc(-c4nc(-c5ccccc5C#N)co4)cc3)cc2)C(=O)NC(=O)NC1=O	516	342	173	0.73 nM	–
CCOCCC1(Oc2ccc(Oc3ccc(-c4nc(-c5cccnc5)co4)cc3)cc2)C(=O)NC(=O)NC1=O	265	124	38	0.34 nM	–
CCOCCC1(Oc2ccc(Oc3ccc(-c4nc(-c5ccc(F)cc5)no4)cc3)cc2)C(=O)NC(=O)NC1=O	210	114	80	6.1 nM	–
CCOCCC1(Oc2ccc(Oc3ccc(C(=O)NCc4cccc(F)c4)cc3)cc2)C(=O)NC(=O)NC1=O	25	120	74	0.85 nM	–
COCCC1(Oc2ccc(Oc3ccc(-c4nc(-c5cccc(C#N)c5)co4)cc3)cc2)C(=O)NC(=O)NC1=O	140	181	29	0.63 nM	–
CCOCCC1(Oc2ccc(Oc3ccc(-c4cnc(-c5ccccc5)o4)cc3)cc2)C(=O)NC(=O)NC1=O	212	309	165	1.7 nM	–
CCOCCC1(Oc2ccc(Oc3ccc(-c4nc(-c5ccc(C#N)cc5)co4)cc3)cc2)C(=O)NC(=O)NC1=O	233	373	429	0.45 nM	–
CCOCCC1(Oc2ccc(Oc3ccc(C(=O)NCc4ccc(F)cc4)cc3)cc2)C(=O)NC(=O)NC1=O	–	11	17	3.4 nM	–
CCOCCC1(Oc2ccc(Oc3ccc(-c4nc(-c5ccccc5F)co4)cc3)cc2)C(=O)NC(=O)NC1=O	270	868	562	0.93 nM	–
CCOCCC1(Oc2ccc(Oc3ccc(C(=O)Nc4ccccn4)cc3)cc2)C(=O)NC(=O)NC1=O	15	27	27	3.9 nM	–
CCOCCC1(Oc2ccc(Oc3ccc(-c4nc(-c5ccncc5)co4)cc3)cc2)C(=O)NC(=O)NC1=O	250	530	70	0.4 nM	–
CCOCCC1(Oc2ccc(Oc3ccc(C(=O)NCc4cccnc4)cc3)cc2)C(=O)NC(=O)NC1=O	–	27	26	2.6 nM	–
CCOCCC1(Oc2ccc(Oc3ccc(-c4nc(-c5cccc(F)c5)no4)cc3)cc2)C(=O)NC(=O)NC1=O	95	56	88	7.8 nM	–
CCOCCC1(Oc2ccc(Oc3ccc(-c4nc(-c5ccc(F)cc5)co4)cc3)cc2)C(=O)NC(=O)NC1=O	243	573	455	0.68 nM	–
CCOCCC1(Oc2ccc(Oc3ccc(-c4noc(-c5ccccc5)n4)cc3)cc2)C(=O)NC(=O)NC1=O	–	37	27	0.84 nM	–
CCOCCC1(Oc2ccc(Oc3ccc(-c4ncc(-c5ccccc5)o4)cc3)cc2)C(=O)NC(=O)NC1=O	43	103	144	7.5 nM	–
CCOCCC1(Oc2ccc(Oc3ccc(-c4nc(-c5ccccc5)co4)cc3)cc2)C(=O)NC(=O)NC1=O	115	259	58	2.4 nM	–

SMILES	Selectivity ratio [1]	Selectivity ratio [2]	Selectivity ratio [3]	IC50 [4]	other results
COCCC1(Oc2ccc(Oc3ccc(-c4nc(-c5ccc(C#N)cc5)co4)cc3)cc2)C(=O)NC(=O)NC1=O	394	619	397	0.84 nM	IC50 [5]: 40 nM; ED50 [6]: 1 mg/kg; clearance [7]: 0.63 mL/min/kg; Selectivity ratio [8]: 1700; Selectivity ratio [9]: 2400; Selectivity ratio [10]: 540; fraction unbound [11]: < 0.01; Vd [12]: 0.34 L/kg; IC50 [13]: 7200 nM; Selectivity ratio [14]: 540; half-life [15]: 6.9 h
COCCC1(Oc2ccc(Oc3ccc(-c4nc(-c5ccc(F)cc5)co4)cc3)cc2)C(=O)NC(=O)NC1=O	338	960	356	0.57 nM	–
CCOCCC1(Oc2ccc(Oc3ccc(-c4nc(-c5cccnc5)no4)cc3)cc2)C(=O)NC(=O)NC1=O	320	504	134	2 nM	–
CCOCCC1(Oc2ccc(Oc3ccc(C(=O)NCc4ccccc4)cc3)cc2)C(=O)NC(=O)NC1=O	–	27	21	8 nM	–
COCCC1(Oc2ccc(Oc3ccc(-c4nc(-c5ccccc5F)co4)cc3)cc2)C(=O)NC(=O)NC1=O	149	605	288	1.4 nM	–
CCOCCC1(Oc2ccc(Oc3ccc(-c4cc(-c5ccccc5)no4)cc3)cc2)C(=O)NC(=O)NC1=O	571	38	11	1.6 nM	–
CCOCCC1(Oc2ccc(Oc3ccc(C(=O)Nc4cccnc4)cc3)cc2)C(=O)NC(=O)NC1=O	120	190	63	0.4 nM	–
CCOCCC1(Oc2ccc(Oc3ccc(C(=O)Nc4ccccc4)cc3)cc2)C(=O)NC(=O)NC1=O	200	50	58	0.84 nM	–
CCOCCC1(Oc2ccc(Oc3ccc(C(=O)NCc4ccccn4)cc3)cc2)C(=O)NC(=O)NC1=O	–	30	17	6.1 nM	–
CCOCCC1(Oc2ccc(Oc3ccc(-c4nc(-c5ccccn5)co4)cc3)cc2)C(=O)NC(=O)NC1=O	57	158	74	1 nM	–
CCOCCC1(Oc2ccc(Oc3ccc(-c4nc(-c5ccccc5)no4)cc3)cc2)C(=O)NC(=O)NC1=O	208	138	54	3.4 nM	–
CCOCCC1(Oc2ccc(Oc3ccc(-c4nc(-c5ccccc5F)no4)cc3)cc2)C(=O)NC(=O)NC1=O	167	176	102	3.3 nM	–
CCOCCC1(Oc2ccc(Oc3ccc(-c4nc(-c5cccc(C#N)c5)co4)cc3)cc2)C(=O)NC(=O)NC1=O	155	134	58	0.53 nM	–
CCOCCC1(Oc2ccc(Oc3ccc(C(=O)NCc4ccccc4F)cc3)cc2)C(=O)NC(=O)NC1=O	27	80	55	1.1 nM	–
CCOCCC1(Oc2ccc(Oc3ccc(-c4nnc(-c5ccccc5)o4)cc3)cc2)C(=O)NC(=O)NC1=O	98	126	66	12 nM	–
CCOCCC1(Oc2ccc(Oc3ccc(-c4nc(-c5ccncc5)no4)cc3)cc2)C(=O)NC(=O)NC1=O	555	232	291	0.54 nM	–
CCOCCC1(Oc2ccc(Oc3ccc(-c4nc(-c5ccccc5C#N)co4)cc3)cc2)C(=O)NC(=O)NC1=O	569	178	142	0.88 nM	–
CCOCCC1(Oc2ccc(Oc3ccc(-c4nc(-c5cccc(F)c5)co4)cc3)cc2)C(=O)NC(=O)NC1=O	133	906	292	0.36 nM	–
